Laboratory results published in patent publication US10131652B2, “Pyrimidinyloxy benzene derivatives as herbicides” (E. I. DU PONT DE NEMOURS AND COMPANY, priority 2014, dated 2018).
Where two headings read alike, the source gives them in different places.

How the values were obtained:
Test in all cases: Test F pre-/postemergence plant response
Assay type in all cases: in vivo
[1] = test system: arrowleaf sida (Sida rhombifolia); conditions: Sida rhombifolia, scale 0 to 100, read-out: Plant response rating, Arrowleaf Sida
Method in brief: (§1)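 Visual control ratings were scored 0 (no effect) to 100 (complete control) versus untreated plants after 14–21 greenhouse days. Compounds, formulated in a surfactant-containing non-phytotoxic solvent, were applied both to silt loam at planting (preemergence) and to 1- to 4-leaf plants 2–18 cm tall (postemergence).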

[2] = test system: barnyardgrass (Echinochloa crus-galli); conditions: Echinochloa crus-galli, scale 0 to 100, read-out: Plant response rating, Barnyardgrass
Method in brief: as §1

corn (Zea mays) = conditions: Zea mays, scale 0 to 100
Method in brief: as §1

[3] = test system: dayflower (Virginia (VA) dayflower, Commelina virginica); conditions: Commelina virginica, scale 0 to 100, read-out: Plant response rating, Dayflower, VA
Method in brief: as §1

[4] = test system: fall panicum (Panicum dichotomiflorum); conditions: Panicum dichotomiflorum, scale 0 to 100, read-out: Plant response rating, Panicum, Fall
Method in brief: as §1

[5] = test system: giant foxtail (Setaria faberii); conditions: Setaria faberi, pre-emergence, scale 0 to 100, read-out: Plant response rating, Foxtail, Giant
Method in brief: as §1

[6] = test system: green foxtail (Setaria viridis); conditions: Setaria viridis, pre-emergence, Preemergence, scale 0 to 100, read-out: Plant response rating, Foxtail, Green
Method in brief: as §1

[7] = test system: johnsongrass (Sorghum halepense); conditions: Sorghum halepense, pre-emergence, scale 0 to 100, read-out: Plant response rating, Johnsongrass
Method in brief: as §1

[8] = test system: large (Lg) crabgrass (Digitaria sanguinalis); conditions: Digitaria sanguinalis, pre-emergence, scale 0 to 100, read-out: Plant response rating, Crabgrass, Large
Method in brief: as §1

[9] = test system: morningglory (Ipomoea coccinea); conditions: Ipomoea, pre-emergence, scale 0 to 100, read-out: Plant response rating, Morningglory
Method in brief: as §1

[10] = test system: palmer pigweed (Amaranthus palmeri); conditions: Amaranthus palmeri, scale 0 to 100, read-out: Plant response rating, Pigweed, Palmer
Method in brief: as §1

[11] = test system: ragweed (common ragweed, Ambrosia elatior); conditions: Ambrosia artemisiifolia, scale 0 to 100, read-out: Plant response rating, Ragweed
Method in brief: as §1

[12] = test system: sandbur (southern sandbur, Cenchrus echinatus); conditions: Cenchrus echinatus, scale 0 to 100, read-out: Plant response rating, Sandbur
Method in brief: as §1

soybean (Glycine max) = conditions: Glycine max, scale 0 to 100, read-out: Plant response rating, Soybean
Method in brief: as §1

[13] = test system: surinam grass (Brachiaria decumbens); conditions: Urochloa decumbens, pre-emergence, scale 0 to 100, read-out: Plant response rating, Surinam Grass
Method in brief: as §1

[14] = test system: waterhemp (common waterhemp, Amaranthus rudis); conditions: Amaranthus tuberculatus, scale 0 to 100, read-out: Plant response rating, Waterhemp
Method in brief: as §1

[15] = post-emergence, 31 g ai/ha Postemergence
[16] = post-emergence, 62 g ai/ha Postemergence
[17] = pre-emergence, 31 g ai/ha Preemergence
[18] = pre-emergence, 62 g ai/ha Preemergence

## Fc1cccc(Oc2ncc(Cl)cn2)c1-c1cc(C(F)F)on1 [Compound 55, 5-chloro-2-[2-[5-(difluoromethyl)-3-isoxazolyl]-3-fluorophenoxy]pyrimidine]
[1]; [15]
  pest or weed control at 31 g/ha: 95%
[1]; [16]
  pest or weed control at 62 g/ha: 100%
[1]; [17]
  pest or weed control at 31 g/ha: 98%
[1]; [18]
  pest or weed control at 62 g/ha: 100%
[2]; [15]
  pest or weed control at 31 g/ha: 50%
[2]; [16]
  pest or weed control at 62 g/ha: 35%
[2]; [17]
  pest or weed control at 31 g/ha: 10%
[2]; [18]
  pest or weed control at 62 g/ha: 85%
Corn (Zea mays); [15]
  Corn plant response rating (crop injury, 0 = no effect, 100 = complete kill) at 31 g/ha: 15%
Corn (Zea mays); [16]
  Corn plant response rating (crop injury, 0 = no effect, 100 = complete kill) at 62 g/ha: 20%
Corn (Zea mays); [17]
  Corn plant response rating (crop injury, 0 = no effect, 100 = complete kill) at 31 g/ha: 0%
Corn (Zea mays); [18]
  Corn plant response rating (crop injury, 0 = no effect, 100 = complete kill) at 62 g/ha: 40%
[3]; [15]
  pest or weed control at 31 g/ha: 70%
[3]; [17]
  pest or weed control at 31 g/ha: 60%
[3]; [18]
  pest or weed control at 62 g/ha: 40%
[4]; [15]
  pest or weed control at 31 g/ha: 40%
[4]; [16]
  pest or weed control at 62 g/ha: 30%
[4]; [17]
  pest or weed control at 31 g/ha: 90%
[4]; pre-emergence, Preemergence
  pest or weed control at 62 g/ha: 100%
[5]; 31 g ai/ha Preemergence
  pest or weed control at 31 g/ha: 90%
[5]; 62 g ai/ha Preemergence
  pest or weed control at 62 g/ha: 98%
[6]; 31 g ai/ha
  pest or weed control at 31 g/ha: 20%
[6]
  pest or weed control at 62 g/ha: 70%
[7]; 31 g ai/ha Preemergence
  pest or weed control at 31 g/ha: 20%
[7]; Preemergence
  pest or weed control at 62 g/ha: 90%
[8]; 31 g ai/ha Preemergence
  pest or weed control at 31 g/ha: 98%
[8]; 62 g ai/ha Preemergence
  pest or weed control at 62 g/ha: 100%
[9]; 31 g ai/ha Preemergence
  pest or weed control at 31 g/ha: 30%
[9]; Preemergence
  pest or weed control at 62 g/ha: 98%
[10]; [15]
  pest or weed control at 31 g/ha: 98%
[10]; [16]
  pest or weed control at 62 g/ha: 98%
[10]; [17]
  pest or weed control at 31 g/ha: 75%
[10]; pre-emergence, Preemergence
  pest or weed control at 62 g/ha: 100%
[11]; [15]
  pest or weed control at 31 g/ha: 55%
[11]; [16]
  pest or weed control at 62 g/ha: 55%
[11]; [17]
  pest or weed control at 31 g/ha: 40%
[11]; pre-emergence, Preemergence
  pest or weed control at 62 g/ha: 50%
[12]; [15]
  pest or weed control at 31 g/ha: 25%
[12]; [16]
  pest or weed control at 62 g/ha: 15%
[12]; [17]
  pest or weed control at 31 g/ha: 0%
[12]; pre-emergence, Preemergence
  pest or weed control at 62 g/ha: 0%
Soybean (Glycine max); [15]
  plant injury at 31 g/ha: 70%
Soybean (Glycine max); [16]
  plant injury at 62 g/ha: 95%
Soybean (Glycine max); [17]
  plant injury at 31 g/ha: 40%
Soybean (Glycine max); pre-emergence, Preemergence
  plant injury at 62 g/ha: 50%
[13]; 31 g ai/ha Preemergence
  pest or weed control at 31 g/ha: 0%
[13]; Preemergence
  pest or weed control at 62 g/ha: 10%
[14]; [15]
  pest or weed control at 31 g/ha: 90%
[14]; [16]
  pest or weed control at 62 g/ha: 100%
[14]; [17]
  pest or weed control at 31 g/ha: 100%
[14]; pre-emergence, Preemergence
  pest or weed control at 62 g/ha: 100%
